Measurements: patent US20170050989A1, “Molecular Imaging Probes” (THE GENERAL HOSPITAL CORPORATION, priority 2013, published 2017)
Entries after “also recorded” stand apart in the source; their conditions may differ.

Key:
[1] = target: T1, unmodified bovine serum albumin (BSA) (Bos taurus, UniProt P02769); experiment: In vitro binding assay: Gd bound to protein after ultrafiltration (ICP); conditions: protein fraction after separation from free solution
T1 construct: A BSA protein standard without the addition of glutaraldehyde was run in parallel as a control

[2] = target: T2, modified bovine serum albumin (BSA-ALD) (Bos taurus, UniProt P02769); experiment: T1 relaxivity/relaxation after incubation with aldehyde-modified BSA; type: binding
Protocol: (§1) A solution of glutaraldehyde (100 μL, 25% wt solution in water) was added to a solution of bovine serum albumin (100 mg) dissolved in phosphate buffered saline (2 mL, pH 7.4, 0.25 mM) and left to stir at room temperature for 5 min. To this solution was added sodium cyanoborohydride (25 mg) and the solution stirred overnight at 4° C. A BSA protein standard without the addition of glutaraldehyde was run in parallel as a control. Both protein mixtures were purified on PD-10 Sephadex G25 desalting columns (GE Healthcare), eluted with water, to remove excess glutaraldehyde. Protein concentrations were assessed using the ‘BCA Protein Assay Kit’ (Thermo Scientific). […] The aldehyde concentration of each protein was estimated using a standard DNPH literature protocol.
(§2) Aliquots of BSA-ALD (3 mg, 150 μL) or BSA (3mg, 163 μL) were treated for 24 h at 37° C. with either Compound 1 or Compound 2 at a range of concentrations (0.1-1.0 mM, concentrations equivalent to [Gd]:[aldehyde] ratio of 1:1, 2:1, 3:1, 4:1 and 5:1) with a total volume of 300 μl maintained for all samples. After 24 h longitudinal (T1) relaxation measurements were recorded using a Bruker mq20 Minispec at 0.47 T and 37° C. […] Relaxivity (r1) was determined from the slope of a plot of 1/T1 vs [Gd] for 5 concentrations of Gd(III). […]

[3] = target: T2, modified bovine serum albumin (BSA-ALD); experiment: In vitro binding assay: Gd bound to protein after ultrafiltration (ICP); conditions: protein fraction after separation from free solution
[4] = T1 relaxivity of probe in solution (water) without protein; type: physicochemical; conditions: no protein, 310K, pH 7, 0.47 T
Protocol: Aliquots of BSA-ALD (3 mg, 150 μL) or BSA (3mg, 163 μL) were treated for 24 h at 37° C. with either Compound 1 or Compound 2 at a range of concentrations (0.1-1.0 mM, concentrations equivalent to [Gd]:[aldehyde] ratio of 1:1, 2:1, 3:1, 4:1 and 5:1) with a total volume of 300 μl maintained for all samples. After 24 h longitudinal (T1) relaxation measurements were recorded using a Bruker mq20 Minispec at 0.47 T and 37° C. Longitudinal (T1) relaxation was acquired via an inversion recovery experiment on 10 inversions of duration ranging between 0.05×T1 and 10×T1. Relaxivity (r1) was determined from the slope of a plot of 1/T1 vs [Gd] for 5 concentrations of Gd(III).
Solutions of Compound 1 and Compound 2 (concentration range: 0.1 mM-1.0 mM, in water) were run in parallel without protein as standard controls.

[5] = target: T1, unmodified bovine serum albumin (BSA); experiment: T1 relaxivity/relaxation after incubation with unmodified BSA; type: binding
Protocol: as §1, §2

[6] = tested on: fibrotic liver (CCl4 mice); experiment: MR liver imaging in CCl4 mouse model of liver fibrosis (18 weeks); type: in vivo; conditions: fibrotic (CCl4-treated) mouse, pre vs 30-minute post administration
Protocol: Liver Fibrosis: Strain A/J male mice (Jackson Laboratories, Bar Harbor, Me.) were administered 0.1 mL of a 40% solution of CCl4 (Sigma, St. Louis, Mo.) in olive oil by oral gavage three times a week for 18 weeks to induce fibrosis. Controls received only pure olive oil. Animals were imaged one week after the last injection to avoid acute effects of CCl4.
Mice were imaged with T1-weighted imaging before and after bolus (tail vein) injection of probe (Compound 1 or Compound 2) using a 4.7T scanner. Image visualization and quantification was performed using the DICOM viewer Osirix. A region of interest (ROI) was placed over the entire liver section while avoiding major blood vessels. Axial slices that cover the entire liver is analyzed (>10 slices/mouse). The signal intensity of the muscle within each slice was also quantified by a separate ROI. To estimate noise, an ROI of the air outside the animal was measured and the standard deviation of this measurement was taken. The same analysis was performed on the pre and 30-min post injection images (3D FLASH sequence).
Contrast to noise ratio (CNR) is calculated using equation (1). SI=signal intensity, SD=standard deviation, and delta CNR is the absolute difference between the pre- and post- images (2).
(§3) CNR=(SIliver−SImuscle)/SDair (1)
Delta CNR={CNRpost−CNRpre} (2)

[7] = tested on: liver fibrosis (CCl4-treated mice); experiment: MR liver imaging in mice after 6 or 12 weeks of CCl4 treatment, or 6 weeks plus recovery; type: in vivo; conditions: for ΔCNR (liver:muscle contrast-to-noise ratio): 15-minute post injection; for liver signal enhancement post vs pre injection (in words): 15 min post injection
Protocol: Strain A/J male mice (Jackson Laboratories, Bar Harbor, Me.) were administered 0.1 ml of a 40% solution of CCl4 (Sigma, St. Louis, Mo.) in olive oil by oral gavage, three times a week for either 6 (n=14) or 12 weeks (n=10), to induce fibrosis at different stages. Controls received only pure olive oil (n=12).
Animals were imaged prior to and immediately following injection of the imaging probe. After imaging, the animals were sacrificed and the liver was removed for histopathological analyses.
Animals were anesthetized with isoflurane (1-2%) and placed in a specially designed cradle with body temperature maintained at 37° C. The tail vein was cannulated for intravenous (iv) delivery of the contrast agent while the animal was positioned in the scanner. Imaging was performed at 4.7T using a small bore animal scanner (Bruker Biospec) with a custom-built volume coil. The mouse was imaged prior to and following a bolus iv injection of Compound 1 (100 μmol/kg). The image sequence was a three dimensional fast low angle shot (3D FLASH) acquisition with repetition time (TR=15.3 ms), echo time (TE=1.54 ms), flip angle=15°, field of view 48×24×24 mm and matrix size 192×96×96 for a resolution of 250 μm isotropic and […] used 4 averages.
Image analysis was performed using the Osirix software. A region of interest (ROI) was manually traced encompassing the liver parenchyma while avoiding major blood vessels. A second ROI was placed on the dorsal muscle visible in the same image slice to quantify the signal intensity in the muscle for comparison. Seven ROIs were placed in the field of view without any tissue (air) to measure the noise in the image. More than 20 axial slices per mouse across the entire liver was analyzed in this fashion. The same analysis was performed on the pre-injection and 15-minute post injection images.
To quantify signal enhancement in the liver, contrast to noise ratio (CNR) was calculated using equation 1 below. SI=signal intensity, SD=standard deviation. An average of all image slices was calculated for the pre-injection images (CNRpre) and for the post-injection images (CNRpos). The liver enhancement for each mouse was expressed as ΔCNR, the difference between the pre-injection CNR and post-injection CNR (equation 2).
as §3
Differences among groups were tested with repeated measures ANOVA, followed by Student-Newman-Keuls post hoc test with P<0.05 considered as significant.
Strain A/J male mice (Jackson Laboratories, Bar Harbor, Me.) were administered 0.1 ml of a 40% solution of CCl4 (Sigma, St. Louis, Mo.) in olive oil by oral gavage, three times a week for 6 weeks and then allowed to recover for an additional 6 weeks (n=7). Animals were imaged prior to and immediately following injection of the imaging probe using the same protocol as in the previous example.
We compared Compound 2 to Compound 1 in terms of their ability to image fibrosis. Compound 2 has a very similar structure to Compound 1 but the hydrazide functional group has been dimethylated. The resulting dimethylhydrazide in Compound 2 is incapable of undergoing irreversible reaction with aldehyde moieties. Using the same animal model and imaging paradigm as described in the previous Example, mice that had been treated with CCl4 for 12 weeks or mice that received vehicle for 12 weeks were imaged.

T2 sequence (P02769 25-607): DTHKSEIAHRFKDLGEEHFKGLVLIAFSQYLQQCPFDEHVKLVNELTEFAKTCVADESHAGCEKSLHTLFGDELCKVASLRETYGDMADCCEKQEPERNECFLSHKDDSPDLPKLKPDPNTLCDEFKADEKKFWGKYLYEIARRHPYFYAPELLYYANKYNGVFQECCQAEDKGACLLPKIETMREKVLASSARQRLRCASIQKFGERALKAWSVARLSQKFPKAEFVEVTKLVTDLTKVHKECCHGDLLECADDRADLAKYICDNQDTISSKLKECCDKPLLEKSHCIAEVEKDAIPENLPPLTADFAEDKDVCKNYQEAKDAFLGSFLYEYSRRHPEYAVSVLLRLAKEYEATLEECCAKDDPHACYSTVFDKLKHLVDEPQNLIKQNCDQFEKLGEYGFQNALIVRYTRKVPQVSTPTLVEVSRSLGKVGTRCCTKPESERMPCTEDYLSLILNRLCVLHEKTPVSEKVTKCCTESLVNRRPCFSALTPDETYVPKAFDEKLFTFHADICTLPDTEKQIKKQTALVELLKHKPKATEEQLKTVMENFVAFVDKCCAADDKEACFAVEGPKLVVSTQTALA
T1 sequence (P02769 25-607): as above

SMILES: CN(C)NC(=O)CC[C@H](C(=O)O)N1CCN(CC(=O)[O-])CCN(CC(=O)[O-])CCN(CC(=O)[O-])CC1.[Gd+3] [Compound 2, (R)-2,2′,2″-(10-(1-carboxy-4-(2,2-dimethylhydrazinyl)-4-oxobutyl)-1,4,7,10-tetraazacyclododecane-1,4,7-triyl)triacetic acid Gadolinium complex]
- Gd bound to protein [1]: No statistically significant amount
- T1 relaxivity with BSA-ALD ([2]; incubated 24 h at 37° C. with BSA-ALD, 310K, pH 7, 0.47 T): 4.22 mM⁻¹ s⁻¹
- change in T1 relaxation time of protein fraction compared to solution controls ([2]; protein fraction after separation, BSA-ALD (FIG. 5A)): did not differ significantly
- Gd bound to protein [3]: No statistically significant amount
- T1 relaxivity, standard solution measurement [4]: 4.09 mM⁻¹ s⁻¹
- change in T1 relaxation time compared to standards ([5]; fractions after separation, BSA (FIG. 5A)): did not differ significantly
- T1 relaxivity with BSA ([5]; incubated 24 h at 37° C. with BSA, 310K, pH 7, 0.47 T): 4.20 mM⁻¹ s⁻¹
- MR signal enhancement of liver [6]: very little enhancement; also recorded: little MR signal enhancement
- increase in ΔCNR, 12-week CCl4-treated vs vehicle ([7]; 12-week CCl4-treated animals vs vehicle): no difference
- ΔCNR (liver:muscle contrast-to-noise ratio) ([7]; 12-week CCl4-treated mice): 0.5±0.5
- liver signal enhancement post vs pre injection (in words) ([7]; 12-week CCl4-treated mice): slight enhancement
- ΔCNR (liver:muscle contrast-to-noise ratio) ([7]; vehicle (olive oil) treated control mice, probe injected iv): 0.6±0.9
- liver signal enhancement post vs pre injection (in words) ([7]; vehicle treated mice): slight enhancement
